From patent publication EP0021229A1, “Arylazo compounds, their preparation and their use” (priority 1979, dated 1981) come the findings set out here.

The assay addresses T1, prostaglandin-15-dehydrogenase (Homo sapiens, UniProt P15428).
T1 construct: from tissue
T1 sequence (P15428 1-266): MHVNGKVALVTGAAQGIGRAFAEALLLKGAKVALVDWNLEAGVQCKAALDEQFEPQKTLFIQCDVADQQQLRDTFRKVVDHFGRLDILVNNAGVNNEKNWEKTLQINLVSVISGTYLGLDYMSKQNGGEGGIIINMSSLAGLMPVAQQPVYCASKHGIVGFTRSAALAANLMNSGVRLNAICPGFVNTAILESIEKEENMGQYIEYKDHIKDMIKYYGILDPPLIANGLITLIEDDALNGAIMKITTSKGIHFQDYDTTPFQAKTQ
Kind of assay: Inhibition of prostaglandin F2a inactivation in cell-free organ preparations (Hoult and Moore). The format is biochemical. The settings on record: in vitro, radioactive prostaglandin F2a incubated with cellfree preparations of different organs; compared to sulfasalazine (compound A). Here is the method: Radioactive prostaglandin F2a was incubated with cellfree preparations of different organs (containing prostaglandin-15-dehydrogenase) according to Hoult and Moore, British Journal of Pharmacology, Vol. 61 (1977), p. 615. After a suitable time the prostaglandins were extracted and separated by chromatography. Then the amount of remaining prostaglandin F 2a was compared with the amounts of metabolites. The inhibiting effect was obtained by the addition of the compounds according to the invention during the incubation and comparison with control experiments without such addition. The results may be represented either as a concentration giving 50% inhibition of the prostaglandin inactivation, or as an inhibition in per cen at a certain concentration of the studied compound. In the following table the results for some compounds according to the invention are shown compared to the known drug sulfasalazine.

With `O=C(O)Cc1cc(N=Nc2ccccc2)ccc1O` [C, 2-hydroxy-5-phenylazo-benzeneacetic acid], the “activity (inhibition of the prostaglandin inactivation) compared with compound A, in words” value is given as “significantly more active than compound A”. As to `O=C(O)Cc1cc(N=Nc2ccc(S(=O)(=O)Nc3ccccn3)cc2)ccc1O` [compound B], the “activity (inhibition of the prostaglandin inactivation) relative to the known compound A” value is reported as 50 times.
